Measurements published in patent US20260070919A1, “CRYSTAL FORM OF FIVE-MEMBERED AND SIX-MEMBERED HETEROCYCLIC COMPOUND, PREPARATION METHOD THEREFOR, AND USE THEREOF” (BEIJING MAXINOVEL PHARMACEUTICALS CO., LTD., priority 2022, published 2026).

What was measured:
Format in all cases: physicochemical
[1] = Dynamic vapor sorption (DVS); settings: for weight gain from 0% RH to 95% RH (moisture absorption): 25° C., weight percentage
Method: (§1) A sample of crystal form I of the compound represented by formula 1 (10 mg) was weighed, and dried for 60 minutes at a temperature of 25° C. and a humidity of 0% RH. The moisture absorption characteristics of the sample were tested as the humidity changed from 0% RH to 95% RH, and the desorption characteristics of the sample were tested as the humidity changed from 95% RH to 0% RH. The humidity change in each step was 5% RH, with an equilibrium criterion of a weight change rate of less than 0.01%/min within 5 minutes and a maximum equilibration time of 2 hours.
as §1, with “II” for “I”
as §1, with “III” for “I”

[2] = Stability test (influencing factors and accelerated conditions; HPLC, appearance, XRPD, DSC)
Method: Appropriate amounts of crystal form II and crystal form III of the compound represented by formula 1 were accurately weighed into 20 mL colorless transparent glass vials, which were placed under corresponding influencing factors (high temperature at 60° C., high humidity of 92.5% RH) and accelerated conditions (40° C./75% RH) respectively. After 1 week and 2 weeks, the samples were removed for HPLC analysis to determine the content and related substances, thereby evaluating the chemical stability of crystal form II and crystal form III. The samples were also characterized by appearance, XRPD, and DSC to assess the physical stability of the two crystal forms. Additionally, samples of crystal form II and crystal form III were accurately weighed into 20 mL colorless transparent glass vials, which were tightly sealed and stored in a −20° C. freezer as standard samples for HPLC analysis.

[3] = XRPD re-characterization of the precipitated sample after days
Method: 20 mg of the compound represented by formula 1 was weighed into a glass vial, which was placed in a 50° C. water bath with a rotational speed of 400 rpm. 90 times the volume of ethyl acetate as good solvent was added to the vial, and the mixture was heated to obtain a clarified solution, which was maintained at the same temperature for 15 minutes. 70 times the volume of n-heptane as anti-solvent was slowly added dropwise thereto under stirring to precipitate a solid, and the mixture was stirred for another 10 minutes. A sample was taken and centrifuged, naturally dried, and characterized by XRPD as crystal form II.
Following the same operational procedure as in method 3, crystal form II was also obtained by using the good solvent and anti-solvent listed in the table below.
Method: An appropriate amount of sample was taken and spread evenly on a single-crystal silicon wafer, and XRPD testing was conducted at room temperature. The specific experimental parameters were as follows: the light source was CuKα, the X-ray intensity was 40 kV/40 mA, the scanning mode was Theta-theta, the scanning angle range was 4° to 40°, the step size was 0.05°, and the scanning speed was 0.5 seconds per step.

[4] = after 2 weeks under −20° C., high temperature, high humidity, light, and accelerated conditions

| weight gain from 0% RH to 95% RH (moisture absorption) [1] [%] | Appearance ([2]; Accelerated (40° C./75%)) | Appearance ([2]; High humidity (92.5% RH)) | Appearance ([2]; High temperature (60° C.)) | chemical stability [2, 4] | Appearance ([2]; control group, −20° C.) | hygroscopicity (in words) ([1]; 0% RH to 95% RH) | physicochemical stability ([2]; −20° C., high temperature, high humidity, and accelerated conditions) | crystal form by XRPD after standing ([3]; after 6 days, good solvent / methyl tert-butyl ether) | crystal form by XRPD after standing ([3]; after 8 days, ethyl acetate / n-heptane) | Structure (SMILES) | physical stability (crystal form conversion) [2, 4] |
| --- | --- | --- | --- | --- | --- | --- | --- | --- | --- | --- | --- |
| 3.025 | – | – | – | – | – | – | – | – | – | CCS(=O)(=O)N1CC(CC#N)(n2cc(-c3nc(Nc4cnn(C)c4)nc4ccsc34)cn2)C1 [Crystal form I] | – |
| 0.4084 | Bright yellow | Bright yellow | Bright yellow | good chemical stability | Bright yellow | – | – | – | – | CCS(=O)(=O)N1CC(CC#N)(n2cc(-c3nc(Nc4cnn(C)c4)nc4ccsc34)cn2)C1 [Crystal form III] | partial conversion of crystal form III to crystal form II |
| 0.1047 | Yellow | Yellow | Yellow | – | Yellow | almost no hygroscopicity | good physicochemical stability | remained as crystal form II | remained as crystal form II | CCS(=O)(=O)N1CC(CC#N)(n2cc(-c3nc(Nc4cnn(C)c4)nc4ccsc34)cn2)C1 [Crystal form II] | – |
